Data on 13 molecules can be found in patent US20240116985A1, “STAPLED PEPTIDES AND METHODS THEREOF” (priority 2020, published 2024).

The IC50 is the point on the concentration scale where inhibition reaches its midpoint.

The target in experiment [1] is T1, beta-catenin/TCF4 engagement (Homo sapiens, UniProt P35222).
T1 construct: expressed in transfected cells; host or cells: HEK293
T1 sequence (P35222 1-781): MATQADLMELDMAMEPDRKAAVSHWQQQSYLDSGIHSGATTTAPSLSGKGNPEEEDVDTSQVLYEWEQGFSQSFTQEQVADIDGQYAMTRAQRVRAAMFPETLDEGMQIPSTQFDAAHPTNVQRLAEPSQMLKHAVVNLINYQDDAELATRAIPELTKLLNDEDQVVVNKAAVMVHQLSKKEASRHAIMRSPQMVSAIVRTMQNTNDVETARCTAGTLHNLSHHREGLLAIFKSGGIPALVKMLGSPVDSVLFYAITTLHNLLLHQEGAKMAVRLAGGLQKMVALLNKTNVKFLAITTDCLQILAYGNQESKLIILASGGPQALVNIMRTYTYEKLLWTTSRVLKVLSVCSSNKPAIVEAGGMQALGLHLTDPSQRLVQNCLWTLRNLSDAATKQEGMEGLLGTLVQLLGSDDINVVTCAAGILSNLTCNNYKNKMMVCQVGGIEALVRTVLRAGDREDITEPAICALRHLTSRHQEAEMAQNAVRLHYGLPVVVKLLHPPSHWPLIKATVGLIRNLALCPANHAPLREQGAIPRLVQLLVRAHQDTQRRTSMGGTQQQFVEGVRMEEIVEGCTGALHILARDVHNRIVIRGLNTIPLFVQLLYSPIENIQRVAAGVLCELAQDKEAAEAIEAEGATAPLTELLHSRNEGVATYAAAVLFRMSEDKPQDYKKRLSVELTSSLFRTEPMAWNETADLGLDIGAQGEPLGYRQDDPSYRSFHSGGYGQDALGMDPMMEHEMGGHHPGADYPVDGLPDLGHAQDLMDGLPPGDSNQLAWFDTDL
In words: Nano-BRET target engagement assay (B-cat-Halo & TCF4-Luc in HEK293 cells). The class given is cell-based. To be noted: absolute IC50; read-out: NanoBRET Abs IC50. A general note: Bioluminescence resonance energy transfer reports proximity on the nanometre scale.

In experiment [2] the target is T2, full-length beta-Catenin (Uniprot ID P35222) (Homo sapiens, UniProt P35222).
T2 construct: 10 nM full-length beta-Catenin (Uniprot ID P35222)
T2 sequence (P35222 1-781): T1 sequence (P35222 1-781)
In words: Fluorescence polarization IC50 (beta-catenin / 5FAM-TCF4 10-53 competition). The class given is binding. The conditions noted are these: fluorescence polarization; read-out: beta-Catenin FP IC50.

SMILES strings stand for the structures. Bounds are passed on as bounds.

For the molecule `CC(=O)N1CCC[C@]12CC=CCCCC1(CCCC=CCCCOC(=O)N3CC[C@@](C(=O)N[C@@H](Cc4ccccc4Cl)C(=O)N[C@@H](Cc4csc5ccccc45)C(=O)N[C@@H](CCC(N)=O)C(N)=O)(C3)NC(=O)[C@H](CC(N)=O)NC(=O)[C@H](Cc3ccccc3)NC(=O)[C@H](C)NC(=O)[C@H](C)NC(=O)[C@H](CNCC(=O)O)NC(=O)[C@H](CC(=O)O)NC1=O)NC(=O)[C@H](CC(C)(C)C)NC(=O)[C@H](CC(=O)O)NC2=O` (stereo partly drawn) [I-1572, Ac-PL3-Asp-Npg-B5-Asp-GA-Ala-Ala-Phe-Asn-PyrS2-2C1F-BztA-Gln-NH2], the IC50 in experiment [1] was > 20000 nM; in experiment [2], 20 nM.
Regarding `C[C@@H]1NC(=O)[C@H](C)NC(=O)[C@H](CC(=O)O)NC(=O)[C@H](CC(=O)O)NC(=O)C2(CCCC=CCCCOC(=O)N3CC[C@@](C(=O)N[C@@H](Cc4ccsc4)C(=O)N[C@@H](Cc4csc5ccccc45)C(=O)N[C@@H](CCC(N)=O)C(N)=O)(C3)NC(=O)[C@H](CC(N)=O)NC(=O)[C@H](Cc3ccccc3)NC1=O)CCCC=CCCC(=O)OC1CC(C(=O)N[C@@H](CC(=O)O)C(=O)N[C@@H](CC(C)(C)C)C(=O)N2)N(S(C)(=O)=O)C1` (stereo partly drawn) [I-1574, MeSO2-HypEs5-Asp-Npg-B5-Asp-Asp-Ala-Ala-Phe-Asn-PyrS2-3Thi-BztA-Gln-NH2], the IC50 in experiment [1] was > 20000 nM; in experiment [2], 15 nM.
For `CC(=O)N1CCC[C@]12CC=CCCCC1(CCCC=CCCCOC(=O)N3CC[C@@](C(=O)N[C@@H](Cc4ccsc4)C(=O)N[C@@H](Cc4csc5ccccc45)C(=O)N[C@@H](CCC(N)=O)C(N)=O)(C3)NC(=O)[C@H](CC(N)=O)NC(=O)[C@H](Cc3ccccc3)NC(=O)[C@H](C)NC(=O)[C@H](C)NC(=O)[C@H](Cc3cccc(-c4nnn[nH]4)c3)NC(=O)[C@H](CC(=O)O)NC1=O)NC(=O)[C@H](CC(C)(C)C)NC(=O)[C@H](CC(=O)O)NC2=O` (stereo partly drawn) [I-1578, Ac-PL3-Asp-Npg-B5-Asp-3TzF-Ala-Ala-Phe-Asn-PyrS2-3Thi-BztA-Gln-NH2] the same measures were > 20000 nM and 11 nM.
As to `CC(=O)N1CCC[C@]12CC=CCCCC1(CCCC=CCCCOC(=O)N3CC[C@@](C(=O)N[C@@H](Cc4ccsc4)C(=O)N[C@@H](Cc4csc5ccccc45)C(=O)N[C@@H](CCC(N)=O)C(N)=O)(C3)NC(=O)[C@H](CC(N)=O)NC(=O)[C@H](Cc3ccccc3)NC(=O)[C@H](C)NC(=O)[C@H](C)NC(=O)[C@H](Cc3ccc(-c4nnn[nH]4)cc3)NC(=O)[C@H](CC(=O)O)NC1=O)NC(=O)[C@H](CC(C)(C)C)NC(=O)[C@H](CC(=O)O)NC2=O` (stereo partly drawn) [I-1579, Ac-PL3-Asp-Npg-B5-Asp-4TzF-Ala-Ala-Phe-Asn-PyrS2-3Thi-BztA-Gln-NH2], the concentration for half-maximal inhibition (IC50) in experiment [1] was > 20000 nM; in experiment [2], 39 nM.
The corresponding values for `CC(=O)N1CCC[C@]12CC=CCCCC1(CCCC=CCCCOC(=O)N3CC[C@@](C(=O)N[C@@H](Cc4ccccc4)C(=O)N[C@@H](Cc4csc5ccccc45)C(=O)N[C@@H](CCC(N)=O)C(N)=O)(C3)NC(=O)[C@H](CC(N)=O)NC(=O)[C@H](Cc3ccccc3)NC(=O)[C@H](C)NC(=O)[C@H](CCCCNC(C)C)NC(=O)[C@H]([C@@H](C)O)NC(=O)[C@H](CC(=O)O)NC1=O)NC(=O)[C@H](CC(C)(C)C)NC(=O)[C@H](CC(N)=O)NC2=O` (stereo partly drawn) [I-1602, Ac-PL3-Asn-Npg-B5-Asp-Thr-iPrLys-Ala-Phe-Asn-PyrS2-Phe-BztA-Gln-NH2] are > 20000 nM and 362 nM.
For the molecule `CC(=O)N1CCC[C@]12CC=CCCCC1(CCCC=CCCCOC(=O)N3CC[C@@](C(=O)N[C@@H](Cc4ccccc4Cl)C(=O)N[C@@H](Cc4csc5ccccc45)C(=O)N[C@@H](CCCN4CCC(F)(F)CC4)C(N)=O)(C3)NC(=O)[C@H]([C@@H](C)O)NC(=O)[C@H](Cc3ccccc3)NC(=O)[C@H](C)NC(=O)[C@H](C)NC(=O)[C@H](CN(CC(=O)O)CC(F)(F)F)NC(=O)[C@H](CC(=O)O)NC1=O)NC(=O)[C@H](CC(C)(C)C)NC(=O)[C@H](CC(=O)O)NC2=O` (stereo partly drawn) [I-1607, Ac-PL3-Asp-Npg-B5-Asp-TfeGA-Ala-Ala-Phe-Thr-PyrS2-2C1F-BztA-F2PipNva-NH2], the values for the IC50 in experiment [1] and in experiment [2] were 11900 nM and 49 nM, respectively.
For `CC(=O)N1CCC[C@]12CC=CCCCC1(CCCC=CCCCOC(=O)N3CC[C@@](C(=O)N[C@@H](Cc4ccccc4C(F)(F)F)C(=O)N[C@@H](Cc4csc5ccccc45)C(=O)N[C@@H](CCCN4CCC(F)(F)CC4)C(N)=O)(C3)NC(=O)[C@H](CC(C)C)NC(=O)[C@H](Cc3ccccc3)NC(=O)[C@H](C)NC(=O)[C@H](C)NC(=O)[C@H](Cc3cccc(C(=O)O)c3)NC(=O)[C@H](CC(=O)O)NC1=O)NC(=O)[C@H](CC(C)(C)C)NC(=O)[C@H](CC(=O)O)NC2=O` (stereo partly drawn) [I-1608, Ac-PL3-Asp-Npg-B5-Asp-3COOHF-Ala-Ala-Phe-Leu-PyrS2-2F3MeF-BztA-F2PipNva-NH2] the same measures were 15100 nM and 76 nM.
For `CC(=O)N1CCC[C@]12CC=CCCCC1(CCCC=CCCCOC(=O)N3CC[C@@](C(=O)N[C@@H](Cc4ccccc4Cl)C(=O)N[C@@H](Cc4csc5ccccc45)C(=O)N[C@@H](CCCN4CCOCC4)C(N)=O)(C3)NC(=O)[C@H]([C@@H](C)O)NC(=O)[C@H](Cc3ccccc3)NC(=O)[C@H](C)NC(=O)[C@H](C)NC(=O)[C@H](CN(CC(=O)O)CC(F)(F)F)NC(=O)[C@H](CC(=O)O)NC1=O)NC(=O)[C@H](CC(C)(C)C)NC(=O)[C@H](CC(=O)O)NC2=O` (stereo partly drawn) [I-1609, Ac-PL3-Asp-Npg-B5-Asp-TfeGA-Ala-Ala-Phe-Thr-PyrS2-2C1F-BztA-MorphNva-NH2] the same measures were 6700 nM and 15 nM.
The corresponding values for `CC(=O)N1CCC[C@]12CC=CCCCC1(CCCC=CCCCOC(=O)N3CC[C@@](C(=O)N[C@@H](Cc4ccccc4C(F)(F)F)C(=O)N[C@@H](Cc4csc5ccccc45)C(=O)N[C@@H](CCCN4CCOCC4)C(N)=O)(C3)NC(=O)[C@H](CC(C)C)NC(=O)[C@H](Cc3ccccc3)NC(=O)[C@H](C)NC(=O)[C@H](C)NC(=O)[C@H](Cc3cccc(C(=O)O)c3)NC(=O)[C@H](CC(=O)O)NC1=O)NC(=O)[C@H](CC(C)(C)C)NC(=O)[C@H](CC(=O)O)NC2=O` (stereo partly drawn) [I-1610, Ac-PL3-Asp-Npg-B5-Asp-3COOHF-Ala-Ala-Phe-Leu-PyrS2-2F3MeF-BztA-MorphNva-NH2] are 4100 nM and 19 nM.
As for `CC(=O)N1CCC[C@]12CC=CCCCC1(CCCC=CCCCOC(=O)N3CC[C@@](C(=O)N[C@@H](Cc4ccccc4Cl)C(=O)N[C@@H](Cc4csc5ccccc45)C(=O)N[C@@H](CC(=O)N4CCN(C)CC4)C(N)=O)(C3)NC(=O)[C@H]([C@@H](C)O)NC(=O)[C@H](Cc3ccccc3)NC(=O)[C@H](C)NC(=O)[C@H](C)NC(=O)[C@H](CN(CC(=O)O)CC(F)(F)F)NC(=O)[C@H](CC(=O)O)NC1=O)NC(=O)[C@H](CC(C)(C)C)NC(=O)[C@H](CC(=O)O)NC2=O` (stereo partly drawn) [I-1611, Ac-PL3-Asp-Npg-B5-Asp-TfeGA-Ala-Ala-Phe-Thr-PyrS2-2C1F-BztA-MePpzAsn-NH2], the IC50 in experiment [1] is 9800 nM; in experiment [2] it was 10 nM.
The corresponding values for `CC(=O)N1CCC[C@]12CC=CCCCC1(CCCC=CCCCOC(=O)N3CC[C@@](C(=O)N[C@@H](Cc4ccccc4Cl)C(=O)N[C@@H](Cc4csc5ccccc45)C(=O)N[C@@H](CC(=O)N4CCOCC4)C(N)=O)(C3)NC(=O)[C@H]([C@@H](C)O)NC(=O)[C@H](Cc3ccccc3)NC(=O)[C@H](C)NC(=O)[C@H](C)NC(=O)[C@H](CN(CC(=O)O)CC(F)(F)F)NC(=O)[C@H](CC(=O)O)NC1=O)NC(=O)[C@H](CC(C)(C)C)NC(=O)[C@H](CC(=O)O)NC2=O` (stereo partly drawn) [I-1613, Ac-PL3-Asp-Npg-B5-Asp-TfeGA-Ala-Ala-Phe-Thr-PyrS2-2C1F-BztA-MorphAsn-NH2] are 5200 nM and 9 nM.
The corresponding values for `CC(=O)N1CCC[C@]12CC=CCCCC1(CCCC=CCCCOC(=O)N3CC[C@@](C(=O)N[C@@H](Cc4ccccc4C(F)(F)F)C(=O)N[C@@H](Cc4csc5ccccc45)C(=O)N[C@@H](CC(=O)N4CCOCC4)C(N)=O)(C3)NC(=O)[C@H](CC(C)C)NC(=O)[C@H](Cc3ccccc3)NC(=O)[C@H](C)NC(=O)[C@H](C)NC(=O)[C@H](Cc3cccc(C(=O)O)c3)NC(=O)[C@H](CC(=O)O)NC1=O)NC(=O)[C@H](CC(C)(C)C)NC(=O)[C@H](CC(=O)O)NC2=O` (stereo partly drawn) [I-1614, Ac-PL3-Asp-Npg-B5-Asp-3COOHF-Ala-Ala-Phe-Leu-PyrS2-2F3MeF-BztA-MorphAsn-NH2] are 6400 nM and 15 nM.
For `CC(=O)N1CCC[C@]12CC=CCCCC1(CCCC=CCCCOC(=O)N3CC[C@@](C(=O)N[C@@H](Cc4ccccc4Cl)C(=O)N[C@@H](Cc4csc5ccccc45)C(=O)N[C@@H](CCCCNC(C)C)C(N)=O)(C3)NC(=O)[C@H]([C@@H](C)O)NC(=O)[C@H](Cc3ccccc3)NC(=O)[C@H](C)NC(=O)[C@H](C)NC(=O)[C@H](CN(CC(=O)O)CC(F)(F)F)NC(=O)[C@H](CC(=O)O)NC1=O)NC(=O)[C@H](CC(C)(C)C)NC(=O)[C@H](CC(=O)O)NC2=O` (stereo partly drawn) [I-1615, Ac-PL3-Asp-Npg-B5-Asp-TfeGA-Ala-Ala-Phe-Thr-PyrS2-2C1F-BztA-iPrLys-NH2] the same measures were 8000 nM and 9 nM.
